Assay results reported in patent publication US20070185069A1, “Anti-angiogenic activity of 2-methoxyestradiol in combination with anti-cancer agents” (priority 2005, published 2007).
Where “and” joins values, the source holds several entries; their conditions need not be identical. Identical values can stand only once.

Tests used:
[1] = tested on: CT-26 syngeneic colon carcinoma; test: CT-26 syngeneic tumor model, subcutaneous; format: in vivo, BALB/c mice
Description: (§1) 2-methoxyestradiol (2ME2) is an endogenous metabolite of estradiol with antiproliferative, proapoptotic and antiangiogenic activity. […] A new formulation of 2ME2 with enhanced absorption, Panzem® NCD, is currently in clinical trials. In anticipation of Phase 2 clinical trials with Panzem® NCD, tests were conducted to assess its anti-tumor activity as either monotherapy or in combination with cytotoxic agents. In this preclinical study, the effectiveness of 2ME2 alone or with the antimetabolite, 5-Fluorouracil (5-FU) in the CT-26 syngeneic tumor model was evaluated. 5-FU is a well-recognized and commonly used antineoplastic agent used for treatment of colorectal cancer. […] Subsequent to these studies, male BALB/c mice were injected subcutaneously with 1×10^6 CT-26 cells. Starting 7 days after tumor cell inoculation when mean tumor volume was approximately 100 mm^3, cohorts of mice (n=5/group) began treatment with (a) vehicle alone; (b) 2ME@200mg/kg p.o. q.d.; (c) 5-FU 30mg/kg p.o. q.d.×5; (d) or a combination of 5-FU at 30 mg/kg p.o. q.d.×5 with 2ME2 at 50, 100, or 200 mg/kg p.o. q.d. […] Cohorts of mice receiving the combination of 5-FU and 2ME2 had oral administrations in the A.M. (5-FU) and the P.M. (2ME2).

[2] = tested on: LLC met; test: LLC met tumor model; format: in vivo; conditions: 2ME2 or both combined
[3] = tested on: H2122; test: H2122 tumor model, MST; format: in vivo; conditions: Paclitaxel, 2ME2 or both combined
[4] = tested on: U87 MG ectopic tumors; test: Early stage U87 MG ectopic tumors, subcutaneous; format: in vivo, Balb/c SCID mice; conditions: study day 30; for inhibition of tumor growth: treatment begun at about 100 mm^3
Description: To assess whether 2ME2 or Temodarg® (Schering Corp. Kenilworth, N.J.) impact tumor growth of U87 MG, we designed the following experiment. Male Balb/c SCID mice were injected subcutaneously with 1×10^6 U87 MG tumor cells.

[5] = tested on: PC3; test: PC3 tumor model, XRT combination; format: in vivo; conditions: 2ME2 or both combined
[6] = tested on: CT-26 cells; test: In vitro inhibition of proliferation of CT-26 cells; format: cell-based; conditions: preliminary in vitro studies
[7] = tested on: U87MG; test: U87MG tumor model, CPT-11 combination; format: in vivo; conditions: CPT-11, 2ME2 or both combined
[8] = in vivo
Description: as §1

[9] = tested on: HUVEC; test: HUVEC proliferation assay (BRDU); format: cell-based; conditions: 48 hours after application of drug
Description: (§2) U87 MG human glioblastoma cells were maintained in vitro in DMEM supplemented with 5% FBS, 2 mM glutamine, 1 mM sodium pyruvate, MEM vitamins and NEAA at 37° C. and 5% CO2. HUVEC were maintained in M 200 media. For both HUVEC and U87 MG proliferation assays, cells were plated in a 96 well plate at 5×10^3 cells per well and incubated at 37° C. overnight. At 24 hours, the media was aspirated and 2ME2 was administered to the cells at the following doses: […]. Proliferation was assessed 48 hours after application of drug by WST-1(U87 MG) or BRDU (HUVEC).

[10] = tested on: U87 MG ectopic tumors; test: Late stage U87 MG glioblastoma xenograft tumor model; format: in vivo, mice; conditions: for %Δ (Percent change in tumor volume from start of treatment): U87MG model, Temodar, 2ME2 or both combined; for inhibition of tumor growth: study day 28, treatment begun at about 300 mm^3, 2ME2 400 mg/kg p.o., q.d., Temodar 42 mg/kg p.o., q.d.×5
Description: In a second preclinical study the effectiveness of 2ME2 alone or in combination with Temodar® in the U87 MG glioblastoma xenograft tumor model was evaluated. Given the effectiveness of Temodar® at the maximally tolerated dose against 100 mm^3 tumor burden, we altered the treatment strategy such that treatment was initiated when mean tumor volume was approximately 300 mm^3. Cohorts of mice received treatment with either vehicle control, 2ME2 400 mg/kg p.o., q.d., Temodar® 42 mg/kg p.o., q.d×5, or 2ME2 400 mg/kg p.o., q.d. combined with Temodar® 42 mg/kg p.o., q.d.×5. Mice treated with the combination of 2ME2 and Temodar® received oral administration in the PM and AM, respectively.

[11] = target: estrogen receptor β (Homo sapiens, UniProt Q92731); conditions: LaVallee et al. 2002; cited from earlier work
estrogen receptor β, sequence (Q92731 whole entry): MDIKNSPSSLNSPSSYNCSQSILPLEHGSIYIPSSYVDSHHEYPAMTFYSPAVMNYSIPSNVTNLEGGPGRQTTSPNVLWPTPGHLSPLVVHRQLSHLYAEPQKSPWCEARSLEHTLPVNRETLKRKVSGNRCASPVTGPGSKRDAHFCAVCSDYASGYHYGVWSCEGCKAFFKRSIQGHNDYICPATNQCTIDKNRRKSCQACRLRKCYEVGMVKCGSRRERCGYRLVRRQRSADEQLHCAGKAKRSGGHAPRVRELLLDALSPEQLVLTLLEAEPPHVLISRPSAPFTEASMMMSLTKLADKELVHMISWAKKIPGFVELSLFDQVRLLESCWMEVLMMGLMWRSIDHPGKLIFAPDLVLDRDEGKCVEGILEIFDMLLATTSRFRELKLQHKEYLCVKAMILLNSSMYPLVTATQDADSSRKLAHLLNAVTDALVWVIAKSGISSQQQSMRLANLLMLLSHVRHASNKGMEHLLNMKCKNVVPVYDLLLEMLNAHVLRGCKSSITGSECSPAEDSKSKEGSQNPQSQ

[12] = target: T1, estrogen receptor α (Homo sapiens, UniProt P03372); conditions: LaVallee et al. 2002; cited from earlier work
T1 sequence (P03372 1-595): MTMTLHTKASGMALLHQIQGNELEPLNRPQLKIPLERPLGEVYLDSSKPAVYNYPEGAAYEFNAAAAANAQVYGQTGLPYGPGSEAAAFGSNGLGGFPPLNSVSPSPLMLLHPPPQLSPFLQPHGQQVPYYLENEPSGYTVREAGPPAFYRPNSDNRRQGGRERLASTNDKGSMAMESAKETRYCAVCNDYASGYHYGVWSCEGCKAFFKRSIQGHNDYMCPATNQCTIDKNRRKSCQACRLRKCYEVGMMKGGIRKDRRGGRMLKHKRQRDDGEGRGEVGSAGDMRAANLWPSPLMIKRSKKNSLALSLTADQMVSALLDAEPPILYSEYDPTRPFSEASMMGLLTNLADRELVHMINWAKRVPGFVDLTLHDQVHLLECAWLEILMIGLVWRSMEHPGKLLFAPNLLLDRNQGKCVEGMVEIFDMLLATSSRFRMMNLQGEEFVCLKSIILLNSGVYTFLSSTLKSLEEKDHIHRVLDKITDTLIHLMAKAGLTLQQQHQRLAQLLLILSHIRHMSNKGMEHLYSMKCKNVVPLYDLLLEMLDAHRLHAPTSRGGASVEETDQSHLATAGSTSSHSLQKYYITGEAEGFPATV

[13] = tested on: U87 MG human glioblastoma cells; test: U87 MG proliferation assay (WST-1); format: cell-based; conditions: U87 MG versus HUVEC
Description: as §2

[14] = tested on: RPMI-8226; test: RPMI-8226 xenograft model of myeloma; format: in vivo; conditions: RPMI-8226 model; Velcade, 2ME2 or both combined
[15] = tested on: vascular endothelial cell proliferation; conditions: Ingber et al. 1990; cited from earlier work
[16] = Separate tolerability study of Temodar; set-up: species or system mice; conditions: mouse, in vivo, po, q.d.×5; read-out: maximally tolerated dose (MTD)
Description: Results: On study day 30, the mean tumor volume of the vehicle control animals was approximately 3000 mm^3. […] Using this dose and regimen in this model, Temodar® blocked U87 MG tumor growth by 98% (T/C =0.02).

[17] = CT-26 model (Table 1), 5-FU, 2ME2 or both combined

## COc1cc2c(cc1O)CC[C@@H]1[C@@H]2CC[C@]2(C)[C@@H](O)CC[C@@H]12 [2ME2, 2-methoxyestradiol]
[1]; [17]
  T/C: 0.37
[1]; study date 29, agent alone (2ME2 200 mg/kg p.o. q.d.; 5-FU 30 mg/kg p.o. q.d.×5)
  T/C: 0.79 and 0.51
[2]; Cisplatin
  T/C: 0.37
[2]; Paclitaxel
  T/C: 0.37
[3]
  MST: 17 days
[4]; 2ME2 200 mg/kg p.o., q.d.
  T/C: 0.61
  inhibition of tumor growth: approximately 40%
[4]; 2ME2 400 mg/kg p.o., q.d.
  T/C: 0.61
  inhibition of tumor growth: approximately 40%
[5]
  T − C (Difference in tumor doubling time): 0 days
[6]
  IC50: 3000 nM
[7]
  %Δ (Percent change in tumor volume from start of treatment): 890%
[8]; CT-26 bearing BALB/c mice
  mean changes in body weight as a consequence of treatment: moderate to no change
[9]
  IC50: 463 nM
[10]
  %Δ (Percent change in tumor volume from start of treatment): 333%
  inhibition of tumor growth: 20%
[11]
  affinity for estrogen receptor β: low affinity
[12]
  affinity for estrogen receptor α: low affinity
[13]
  anti-proliferative dosage on glioblastoma cells relative to dosage with antiangiogenic effect on HUVEC: nearly five times
[14]
  T/C: 0.66

## O=c1[nH]cc(F)c(=O)[nH]1 [5-FU, 5-Fluorouracil]
[1]; [17]
  T/C: 0.38
[8]; male, mouse, in vivo, po
  MTD at 5 days: 30 mg/kg
[8]; mouse, in vivo
  mean changes in body weight as a consequence of treatment: moderate to no change

## CO[C@@H]1[C@H](OC(=O)NC(=O)CCl)CC[C@]2(CO2)[C@H]1[C@@]1(C)O[C@@H]1CC=C(C)C [AGM-1470]
[15]
  half-maximal inhibition of vascular endothelial cell proliferation at lower concentration than tumor cell proliferation: 4 logs

## N.N.[Cl][Pt][Cl] [Cisplatin, reference compound]
[2]; Cisplatin
  T/C: 0.19

## CC(=O)O[C@H]1C(=O)[C@@]2(C)[C@H]([C@H](OC(=O)c3ccccc3)[C@]3(O)C[C@H](OC(=O)[C@H](O)[C@@H](NC(=O)c4ccccc4)c4ccccc4)C(C)=C1C3(C)C)[C@]1(OC(C)=O)CO[C@@H]1C[C@@H]2O [Paclitaxel, reference compound]
[2]; Paclitaxel
  T/C: 0.38
[3]
  MST: 24 days

## Cn1nnc2c(C(N)=O)ncn2c1=O [Temodar ®, reference compound]
[16]
  MTD at 5 days: 42 mg/kg
[4]; Temodar 42 mg/kg p.o., q.d.×5
  T/C: 0.02
  inhibition of tumor growth: 98%
[10]
  %Δ (Percent change in tumor volume from start of treatment): 266%
  inhibition of tumor growth: 34%

## CC(C)C[C@H](NC(=O)[C@H](Cc1ccccc1)NC(=O)c1cnccn1)B(O)O [Velcade, reference compound]
[14]
  T/C: 0.64
